Laboratory results from patent US11130766B2, “Deuterated thienopiperidine derivatives, manufacturing method, and application thereof” (JIANGSU TASLY DIYI PHARMACEUTICAL CO., LTD., priority 2015, dated 2021).
Like-named read-outs stand apart in the source and are kept apart here. Marks after values point to notes of the source that are not given here.

Assays:
Rat Tail Bleeding Model = settings: SD rat, 10 mg/kg oral gavage, 4 h after administration
Procedure: genus, strain SD rat, • Provider: Slac • Weight: 250-350 g • Sex: male • Animal number: 30
Experimental Method: • The animals were allowed adapt to the environment after arrival for 1 week and fasted for 16 hours prior to the experiment. • The tail bleeding time started to be recorded 2 h after oral administration of the test compounds and 4 h after oral administration of clopidogrel. • The rats were anesthetized with pentobarbital sodium (50 mg/kg, ip) 10 min prior to the recording of the tail bleeding time, after the rat was completely anesthetized and reaching the detection time, the tail was cut at 1.3 mm from the rat tail-tip with a scissor and perpendicularly immerged into a saline at 37° C. Timing recording was not started until the blood flow appeared. • The timing recording was stopped when the bleeding time interval was longer than 20 seconds. The maximum observation time for the blood flow was set for 40 minutes. If it was longer than 40 minutes, the timing recording was stopped and the time was recorded as 40 minutes.

esterase [1] = settings: rat whole blood, 37° C., 30 μg/mL
Procedure: The hydrolysis rates of formula TSD-6 and clopidogrel bisulfate in the rat whole blood were determined by employing the in vitro incubation method.
3 mL of the rat fresh whole blood was taken and placed in a glass test tube. 30 μg/mL of formula TSD-6 and clopidogrel bisulfate (prepared with saline) were added, with 3 parallel tests for each group. The test tubes were shocked at a constant temperature of 37° C., 100 μL of the mixture was taken out at fixed time points of 10 min, 20 min, 30 min, 40 min, 50 min, 60 min, 70 min, 80 min, 90 min, 100 min, 110 min, and 120 min, into which 900 μL of methanol was added to stop the reaction immediately, then 100 μL methanol/water (1:1, v/v) and 100 μL internal standard (diazepam, 100 ng/mL) were added sequentially. The mixture was centrifuged at 13000 rpm at low temperature for 10 min, the supernatant was transferred into another EP tube, and 20 μL of the supernatant was taken for sample injection.

[2] = tested on: ADP induced platelet aggregation; test: ADP induced platelet aggregation, maximum aggregation rate after administration to rats; type: in vivo, Wistar male rats; settings: ADP induced, rats, 3 mg/kg, blood drawn 2 hours after administration
Procedure: Addition of small dose of ADP (concentration less than 0.9 μmol/L) into the platelet suspension could lead to rapid platelet aggregation, followed by quick disaggregation; if moderate dose of ADP (about 1.0 μmol/L) was added, then the second irreversible aggregation phase appeared not long after the end of the first aggregation phase and the disaggregation. The maximum aggregation rate of the irreversible aggregation phase was used to evaluate the effect of the test samples on the function of blood coagulation.
Animals: Wistar male rats, weighing 230-250 g, were purchased from Vital River Laboratory Animal Technology Co., Ltd.
Reagent: ADP, Sigma Corporation.
Test samples: 16 test samples were provided by the Tasly Group; referred to China patent application 201310428052.4 for manufacturing method of TSC-1˜4 and TSC-6˜9.
Dose of administration: the test samples were suspended with 0.25% CMC, administered 3 mg/kg weight, volume of administration: 2 mL.
2 Hours after administration, the rats were anesthetized with pentobarbital sodium, and blood was drawn from the abdominal aorta, anticoagulated with sodium citrate with a ratio of 1:9, and centrifuged to obtain the platelet-rich plasma and platelet-poor plasma, with the mixed ratio of the platelet-poor plasma to platelet-rich plasma=3:1.

esterase [3] = test: Esterase hydrolysis rates of TSD-8 and clopidogrel bisulfate, in vitro incubation in rat whole blood; type: in vitro ADME; design: sample test results (concentration) Num. 1 / sample test results (concentration) Num. 2 / sample test results (concentration) Num. 3 / sample test results (concentration) Mean: unit not given here; settings: rat whole blood, 37° C., 30 μg/mL
[4] = tested on: Rat Arteriovenous Thrombus Loop Model; settings: SD rat, 10 mg/kg oral gavage, 4 h after administration, 15 min circulation
Source text: genus, strain: SD rat, • Provider: Slac • Weight: 250-350 g • Sex: male • Animal number: 30
Apparatus and Materials • Swab, dry tampon, alcohol pad, anerdian tampon. • Surgical scissor, ophthalmic forceps, hemostatic forceps, microsurgical scissor, microsurgical forceps, artery clamps. • 3-0 surgical suture, thick PE tube (I.D.*O.D.=1.14 mm*1.63 mm, 8 cm long), think PE tube (I.D.*O.D.=0.72 mm*1.22 mm, 6 cm long). • Surgical board, binding rope, timer, precise electronic balance, weighing paper. • Syringe, normal saline.
7. Experimental Method • After arrival, the animals were let adapt to the environment for 1 week and fasted for 16 hours prior to the test. • The arteriovenous blood loop circulation was started 2 h after oral administration of the test compounds and 4 h after oral administration of clopidogrel. • The rats were anesthetized with pentobarbital sodium (50 mg/kg, ip) 15 min before the arteriovenous blood loop circulation was started. • The left external jugular vein and the right carotid artery were separated and inserted with thin PE tubes respectively. • Two PE tubes were connected with another thick PE tube with a length of 8 cm to form a circulation passage. There's a 6 cm surgical suture (3-0) in the thick PE tube. • 15 min after the circulation passage was opened, the blood flow was blocked, the filament was taken out and weighed after the blood was sucked out. The thrombus weight was obtained after subtraction of the weight of the filament itself.

COC(=O)[C@H](c1ccccc1Cl)N1CCc2sccc2C1 [clopidogrel, Clopidogrel, reference compound]
Tail Bleeding Time (s) (Rat Tail Bleeding Model): 1896*** s
time at which the concentration in the whole blood was lower than the quantitative lower limit (esterase [1]): around 50 min
sample test results (concentration) Mean (esterase [1]; 10 min): 211.0
sample test results (concentration) Num. 1 (esterase [1]; 10 min): 238
sample test results (concentration) Num. 2 (esterase [1]; 10 min): 221
sample test results (concentration) Num. 3 (esterase [1]; 10 min): 174
sample test results (concentration) Mean (esterase [1]; 20 min): 89.6
sample test results (concentration) Num. 1 (esterase [1]; 20 min): 66.2
sample test results (concentration) Num. 2 (esterase [1]; 20 min): 128
sample test results (concentration) Num. 3 (esterase [1]; 20 min): 74.7
sample test results (concentration) Mean (esterase [1]; 30 min): 35.1
sample test results (concentration) Num. 1 (esterase [1]; 30 min): 24.1
sample test results (concentration) Num. 2 (esterase [1]; 30 min): 57.2
sample test results (concentration) Num. 3 (esterase [1]; 30 min): 24.1
sample test results (concentration) Mean (esterase [1]; 40 min): 11.2
sample test results (concentration) Num. 1 (esterase [1]; 40 min): 6.27
sample test results (concentration) Num. 2 (esterase [1]; 40 min): 15.1
sample test results (concentration) Num. 3 (esterase [1]; 40 min): 19.3
sample test results (concentration) Mean (esterase [1]; 50 min): 0.70
sample test results (concentration) Num. 1 (esterase [1]; 50 min): 0.449
sample test results (concentration) Num. 2 (esterase [1]; 50 min): 1.12
sample test results (concentration) Num. 3 (esterase [1]; 50 min): 0.518
sample test results (concentration) Mean (esterase [1]; 60 min): 0.62
sample test results (concentration) Num. 1 (esterase [1]; 60 min): 0.417
sample test results (concentration) Num. 2 (esterase [1]; 60 min): 1.45
sample test results (concentration) Num. 3 (esterase [1]; 60 min): 0
sample test results (concentration) Mean (esterase [1]; 90 min): 0
sample test results (concentration) Num. 1 (esterase [1]; 90 min): 0
sample test results (concentration) Num. 2 (esterase [1]; 90 min): 0
sample test results (concentration) Num. 3 (esterase [1]; 90 min): 0
sample test results (concentration) Mean (esterase [1]; 100 min): 0
sample test results (concentration) Num. 1 (esterase [1]; 100 min): 0
sample test results (concentration) Num. 2 (esterase [1]; 100 min): 0
sample test results (concentration) Num. 3 (esterase [1]; 100 min): 0
sample test results (concentration) Mean (esterase [1]; 110 min): 0
sample test results (concentration) Num. 1 (esterase [1]; 110 min): 0
sample test results (concentration) Num. 2 (esterase [1]; 110 min): 0
sample test results (concentration) Num. 3 (esterase [1]; 110 min): 0
sample test results (concentration) Mean (esterase [1]; 120 min): 0
sample test results (concentration) Num. 1 (esterase [1]; 120 min): 0
sample test results (concentration) Num. 2 (esterase [1]; 120 min): 0
sample test results (concentration) Num. 3 (esterase [1]; 120 min): 0
Maximum Platelet Aggregation Rate [2]: 46.77 ± 8.28
time at which the concentration in the whole blood was lower than the quantitative lower limit (esterase [3]): around 50 min
sample test results (concentration) Mean (esterase [3]; 10 min): 199.50
sample test results (concentration) Num. 1 (esterase [3]; 10 min): 232
sample test results (concentration) Num. 3 (esterase [3]; 10 min): 167
sample test results (concentration) Mean (esterase [3]; 20 min): 90.53
sample test results (concentration) Num. 1 (esterase [3]; 20 min): 64.1
sample test results (concentration) Num. 2 (esterase [3]; 20 min): 131
sample test results (concentration) Num. 3 (esterase [3]; 20 min): 76.5
sample test results (concentration) Mean (esterase [3]; 30 min): 34.07
sample test results (concentration) Num. 1 (esterase [3]; 30 min): 20.6
sample test results (concentration) Num. 2 (esterase [3]; 30 min): 53
sample test results (concentration) Num. 3 (esterase [3]; 30 min): 28.6
sample test results (concentration) Mean (esterase [3]; 40 min): 11.82
sample test results (concentration) Num. 1 (esterase [3]; 40 min): 6.46
sample test results (concentration) Num. 2 (esterase [3]; 40 min): 14.3
sample test results (concentration) Num. 3 (esterase [3]; 40 min): 14.7
sample test results (concentration) Mean (esterase [3]; 50 min): 0.62
sample test results (concentration) Num. 1 (esterase [3]; 50 min): 0.479
sample test results (concentration) Num. 2 (esterase [3]; 50 min): 1.01
sample test results (concentration) Num. 3 (esterase [3]; 50 min): 0.359
sample test results (concentration) Mean (esterase [3]; 60 min): 0.53
sample test results (concentration) Num. 1 (esterase [3]; 60 min): 0.347
sample test results (concentration) Num. 2 (esterase [3]; 60 min): 1.24
sample test results (concentration) Num. 3 (esterase [3]; 60 min): 0
sample test results (concentration) Mean (esterase [3]; 90 min): 0.00
sample test results (concentration) Num. 1 (esterase [3]; 90 min): 0
sample test results (concentration) Num. 2 (esterase [3]; 90 min): 0
sample test results (concentration) Num. 3 (esterase [3]; 90 min): 0
sample test results (concentration) Mean (esterase [3]; 100 min): 0.00
sample test results (concentration) Num. 1 (esterase [3]; 100 min): 0
sample test results (concentration) Num. 2 (esterase [3]; 100 min): 0
sample test results (concentration) Num. 3 (esterase [3]; 100 min): 0
sample test results (concentration) Mean (esterase [3]; 110 min): 0.00
sample test results (concentration) Num. 1 (esterase [3]; 110 min): 0
sample test results (concentration) Num. 2 (esterase [3]; 110 min): 0
sample test results (concentration) Num. 3 (esterase [3]; 110 min): 0
sample test results (concentration) Mean (esterase [3]; 120 min): 0.00
sample test results (concentration) Num. 1 (esterase [3]; 120 min): 0
sample test results (concentration) Num. 2 (esterase [3]; 120 min): 0
sample test results (concentration) Num. 3 (esterase [3]; 120 min): 0
Thrombus (mg) [4]: 20.1** mg
